The values that follow come from patent US20100055712A1, “Oligopeptides for treatment of osteoporosis and other bone diseases and methods therefor” (Washington University, priority 2008, published 2010).

SMILES strings stand for the structures. *1 amine or outer side, *2 acyl side, *3 side chain or, on linkers, in order; H or OH if unused. Where a SMILES comes first, the peptide text is derived from it. [ ]: non-standard residue; d: D form. The star is where a group is joined. X1 = CC(N[*:1])C(=O)C(F)(F)C(=O)[*:2]; Boc = CC(C)(C)OC(=O)*

This test has as its system LRP1 expression in WT MEF cells. Nature of the test: LRP1 expression in WT MEF cells after treatment with γ-secretase inhibitors (western blot). In kind it is cell-based, mouse. The note with it: FIGS. 5I and 5J. From the text: The requirement of γ-secretase activity in LRP1 regulation was further verified by two alternative approaches.
A general note: In western blotting, separated proteins are transferred to a membrane and probed.

As for `C[C@H](NC(=O)Cc1cc(F)cc(F)c1)C(=O)N[C@H](C(=O)OC(C)(C)C)c1ccccc1` [DAPT], the LRP1 expression entry is “enhanced LRP1 expression”.

On to `CCC(C)C(NC(=O)C(NC(=O)OC(C)(C)C)C(C)C)C(=O)NC(C)C(=O)C(F)(F)C(=O)NC(C(=O)NC(C(=O)OC)C(C)CC)C(C)C` (stereo not drawn) [DFK, DFK167] (Boc-VI[X1]VI-OMe; configuration not given here), for which the LRP1 expression entry is reported as “enhanced LRP1 expression”.

Consider `CC(C)C[C@H](NC(=O)[C@H](Cc1ccccc1)C[C@@H](O)[C@H](Cc1ccccc1)NC(=O)OC(C)(C)C)C(=O)N[C@@H](Cc1ccccc1)C(N)=O` [L685,458], for which the LRP1 expression entry is reported as “enhanced LRP1 expression”.
